# Patent US20080214555A1 (priority 2007, published 2008)
# What was measured:
# [1] = system: patients with non-ST elevation acute coronary syndrome; assay: MERLIN-TIMI 36: ischemia on Holter / continuous ECG (CECG); assay type: in vivo, human
# Description: Median clinical follow-up was 12 months. At randomization, 3-lead CECG monitoring was initiated for median duration of 6.9 days. Recurrent ischemia on CECG was defined as ST dep >1 mm from baseline lasting >1 min. The TRS is calculated as the sum of seven presenting characteristics: 1) age >65 yrs, 2) >3 cardiac risk factors, 3) documented coronary artery disease, 4) recent severe angina, 5) ST deviation >0.5 mm, 6) elevated cardiac markers, and 7) prior aspirin use and is categorized as low (0-2), moderate (3-4), or high (>4) risk.
# The data for total duration (minutes) of ischemia on Holter between randomization and 72 hours from MERLIN-TIMI 36 is shown in Table 19 below.
# At randomization, 6355 patients (99%) had 3-lead CECG monitoring initiated (median duration 6.9 days). The primary CECG endpoint was the rate of ST dep ≧1 mm from baseline lasting ≧1 minute with heart rate at onset <100 bpm. Exploratory analyses using ST dep ≧0.5 mm were also performed.
# [2] = system: patients with non-ST elevation acute coronary syndrome; assay: MERLIN-TIMI 36: HbA1c and hyperglycemia; assay type: in vivo, human
# Description: HbA1c data are reported as least-square means. Patients categorized as “diabetic” had been diagnosed as diabetic before or at the time of randomization. Patients categorized as “no diabetes” had not been diagnosed as diabetic before or at the time of randomization. Some patients characterized as “no diabetes” may have been diagnosed as “diabetic” during the trial; however, these patients are still listed in the “no diabetes” category in FIG. 4B.
# [3] = Baseline (in-hospital visit prior to randomization), all patients dosed, n = 3268
# [4] = Diabetes at enrollment, n = 1098, Baseline
# [5] = Diabetes at enrollment, n = 1098, Final Visit
# [6] = Diabetes at enrollment, n = 1098, Month 4
# [7] = Diabetes at enrollment, n = 1098, Month 8
# [8] = Diabetes at enrollment, n = 1098, Month 16
# [9] = Final Visit, all patients dosed, n = 3268
# [10] = Month 4, all patients dosed, n = 3268
# [11] = Month 8, all patients dosed, n = 3268
# [12] = Month 16, all patients dosed, n = 3268
# [13] = No Diabetes at enrollment, n = 2170, Baseline
# [14] = No Diabetes at enrollment, n = 2170, Final Visit
# [15] = No Diabetes at enrollment, n = 2170, Month 4
# [16] = No Diabetes at enrollment, n = 2170, Month 8
# [17] = No Diabetes at enrollment, n = 2170, Month 16
# [18] = at 4 months, 4306 patients with serial measurements
# [19] = patients with DM treated with ranolazine
structure (smiles),measurement,setting,value
"COc1ccccc1OCC(O)CN1CCN(CC(=O)Nc2c(C)cccc2C)CC1 (racemic) [Ranolazine, (±)-N-(2,6-dimethylphenyl)-4-[2-hydroxy-3-(2-methoxyphenoxy)-propyl]-1-piperazineacetamide]",Rate of primary CECG endpoint events,[1]; >72 hours after randomization,11.6%
same,"RR, primary CECG endpoint events","[1]; >72 hours after randomization, ranolazine vs placebo",0.86
same,"Rate of primary CECG endpoint (ST dep ≧1 mm lasting ≧1 minute, heart rate at onset <100 bpm)",[1]; entire 7 day recording,19.2%
same,Rate of CECG ischemic events,[1]; lower ischemic threshold of 0.5 mm,22.9
same,"RR, CECG ischemic events","[1]; lower ischemic threshold of 0.5 mm, ranolazine vs placebo",0.91
same,"Patients with HbA1C ≧7%, number",[2]; [3],655
same,"Patients with HbA1C ≧7%, proportion",[2]; [3],(24%)
same,"Patients with HbA1C ≧7%, number",[2]; [4],542
same,"Patients with HbA1C ≧7%, proportion",[2]; [4],(57%)
same,"Patients with HbA1C ≧7%, number",[2]; [5],324
same,"Patients with HbA1C ≧7%, proportion",[2]; [5],(42%)
same,"Patients with HbA1C ≧7%, number",[2]; [6],326
same,"Patients with HbA1C ≧7%, proportion",[2]; [6],(41%)
same,"Patients with HbA1C ≧7%, number",[2]; [7],263
same,"Patients with HbA1C ≧7%, proportion",[2]; [7],(44%)
same,"Patients with HbA1C ≧7%, number",[2]; [8],63
same,"Patients with HbA1C ≧7%, proportion",[2]; [8],(48%)
same,"Patients with HbA1C ≧7%, number",[2]; [9],416
same,"Patients with HbA1C ≧7%, proportion",[2]; [9],(17%)
same,"Patients with HbA1C ≧7%, number",[2]; [10],404
same,"Patients with HbA1C ≧7%, proportion",[2]; [10],(17%)
same,"Patients with HbA1C ≧7%, number",[2]; [11],335
same,"Patients with HbA1C ≧7%, proportion",[2]; [11],(18%)
same,"Patients with HbA1C ≧7%, number",[2]; [12],84
same,"Patients with HbA1C ≧7%, proportion",[2]; [12],(20%)
same,"Patients with HbA1C ≧7%, number",[2]; [13],113
same,"Patients with HbA1C ≧7%, proportion",[2]; [13],(6%)
same,"Patients with HbA1C ≧7%, number",[2]; [14],92
same,"Patients with HbA1C ≧7%, proportion",[2]; [14],(6%)
same,"Patients with HbA1C ≧7%, number",[2]; [15],78
same,"Patients with HbA1C ≧7%, proportion",[2]; [15],(5%)
same,"Patients with HbA1C ≧7%, number",[2]; [16],72
same,"Patients with HbA1C ≧7%, proportion",[2]; [16],(6%)
same,"Patients with HbA1C ≧7%, number",[2]; [17],21
same,"Patients with HbA1C ≧7%, proportion",[2]; [17],(7%)
same,HbA1c (least-square mean),[2]; [18],5.9%
same,HbA1c change from baseline,[2]; [18],−0.30%
same,Worsening of hyperglycemia (>1% increase in HbA1c),"[2]; diabetic patients, by 1 year of follow-up",14.2%
same,"HR, worsening of hyperglycemia","[2]; diabetic patients, ranolazine vs placebo, 95% CI 0.51, 0.77",0.63
same,Reported hypoglycemia,[2]; patients with DM,3%
same,HbA1c after decline,[2]; [19],6.8%
same,HbA1c Δ,[2]; [19],−0.64%
same,HbA1c before decline,"[2]; patients with DM treated with ranolazine, starting value",7.2%
same,Patients achieving an HbA1c <7%,"[2]; patients with DM, at 4 months",59%
same,Incidence of new fasting glucose >110 mg/dL or HbA1c ≧6%,[2]; patients without DM at randomization or baseline (fasting glucose <100 mg/dL and HbA1c <6%),31.8%
same,"HR, new fasting glucose >110 mg/dL or HbA1c ≧6%","[2]; patients without DM, ranolazine vs placebo, 95% CI 0.53, 0.88",0.68
